Reference: US20250313577A1, “TRICYCLIC PYRIDONES AND PYRIMIDONES” (ERASCA, INC, priority 2022, published 2025)

These molecules were tested against T1, KRAS G12C (Homo sapiens, UniProt P01116, G12C) (assay: phospho-ERK HTRF assay in Ras Initiative (RI) KRAS G12C cells). Settings: phospho-ERK1/2 HTRF, 11-point dose response from 2,500 nM, treatment for either 4 hours or 16 hours, read-out: pERK (RI).
T1 construct: expressed in transfected cells; host or cells: Ras Initiative (RI) KRAS G12C cells
Assay type: cell-based
Experimental: Inhibition of KRAS G12C-Mediates Phospho-ERK1/2 Inhibition by Compounds of Formula I
This Example illustrates that various compounds of the present disclosure inhibit KRAS G12C thereby mediating the downstream inhibition of phospho-ERK1/2.
KRAS G12C mutant cell lines, NCI H358 (ATCC, CRL-5807), and Ras Initiative (R1) KRAS G12C were cultured according to published protocols and maintained at 37° C. in 5% CO2. The phospho-ERK HTRF assay was executed following provider's protocol (CisBio #64AERPEH). NCI-H358 or RI KRAS G12C cells were plated at a density of 50,000 cells per well in a 96-well plate (Corning #3903) in respective medias (for NCI-H358, RPMI+10% FBS+1% Pen/Strep, and for RI KRAS G12C, DMEM+10% FBS+1% Pen/Strep+4 ug/ml Blasticidin) and maintained at 37° C. in 5% CO2. Cells were allowed to adhere overnight and treated the following day with a Tecan D300e Digital Dispenser (Tecan Group Ltd., Switzerland) using an 11-point dose response starting at 2,500 nM of exemplified compounds followed by sequential 1:3 dilutions for either 4 hours or 16 hours. Following compound treatment, the cells were washed once with ice-cold PBS. Cells were lysed by adding 50 μl of lysis buffer (1×) supplemented with 1× Pierce Halt Protease and Phosphatase inhibitor and incubated for 30 minutes at 4° C. with shaking. After lysis, 16 μL of cell lysate from the 96-well cell-culture plate was transferred to a 384-well plate (Perkin Elmer #6007290). The premixed antibody solution was prepared by mixing (vol/vol) advanced phospho-ERK1/2 d2 antibody and advanced phospho-ERK1/2 Eu Cryptate antibody. The premixed antibody solution ([…]) was added to the detection plate containing cell lysate. The detection plate was incubated overnight at 4° C., the HTRF signal was read the next day by using either a Spectramax M5 or Spectramax i3 microplate reader (Molecular Devices, San Jose, CA, USA), and data was processed according to manufacturer's protocol.
Compounds prepared according to the preceding procedures and characterized for inhibition of p-ERK according to the protocol provided herein are summarized in Table 3: […]

Row | IC50 [nM] | Molecule
1 | 0.5 to 2 | C=CC(=O)N1[C@H](C)CN(c2nc(=O)n3c4c(c(-c5cc(Br)c(F)cc5F)c(C(F)(F)F)cc24)SC[C@@H](c2ccccn2)C3)C[C@@H]1C (single isomer, unassigned) [Example 107B]
2 | 2 to 20 | C=CC(=O)N1[C@H](C)CN(c2nc(=O)n3c4c(c(-c5cc(Cl)c(F)cc5F)c(C(F)(F)F)cc24)SC[C@@H](c2ccncc2F)C3)C[C@@H]1C (single isomer, unassigned) [Example 112A]
3 | 20 to 250 | (3R,11S)-8-((3S,5R)-4-acryloyl-3,5-dimethylpiperazin-1-yl)-11-(5-chloro-2,4-difluorophenyl)-3-((S)-3,4-dihydropyridin-4-yl)-10-(trifluoromethyl)-3,4-dihydro-2H,6H-[1,4]thiazepino[2,3,4-ij]quinazolin-6-one [Example 101B]
4 | 0.5 to 2 | C=CC(=O)N1[C@H](C)CN(c2nc(=O)n3c4c(c(-c5cc(Br)c(F)cc5F)c(C(F)(F)F)cc24)SC[C@@H](c2cccnc2)C3)C[C@@H]1C (atropisomer, axis not shown) [Example 108A, (3S,11R)-8-((3S,5R)-4-acryloyl-3,5-dimethylpiperazin-1-yl)-11-(5-bromo-2,4-difluorophenyl)-3-(pyridin-3-yl)-10-(trifluoromethyl)-3,4-dihydro-2H,6H-[1,4]thiazepino[2,3,4-ij]quinazolin-6-one]
5 | 0.5 to 2 | C=CC(=O)N1[C@H](C)CN(c2nc(=O)n3c4c(c(-c5cc(Cl)c(F)cc5F)c(C(F)(F)F)cc24)SC[C@@H](c2cccnc2)C3)C[C@@H]1C (atropisomer, axis not shown) [Example 104A, (3S,11R)-8-((3S,5R)-4-acryloyl-3,5-dimethylpiperazin-1-yl)-11-(5-chloro-2,4-difluorophenyl)-3-(pyridin-3-yl)-10-(trifluoromethyl)-3,4-dihydro-2H,6H-[1,4]thiazepino[2,3,4-ij]quinazolin-6-one]
6 | 0.5 to 2 | C=CC(=O)N1[C@H](C)CN(c2nc(=O)n3c4c(c(-c5cc(Cl)c(F)cc5F)c(C(F)(F)F)cc24)SC[C@@H](c2ccncc2F)C3)C[C@@H]1C (single isomer, unassigned) [Example 112B]
7 | 2 to 20 | C=CC(=O)N1[C@H](C)CN(c2nc(=O)n3c4c(c(-c5cc(Br)c(F)cc5F)c(C(F)(F)F)cc24)SC[C@@H](c2cccnc2)C3)C[C@@H]1C [Example 108B, (3S,11S)-8-((3S,5R)-4-acryloyl-3,5-dimethylpiperazin-1-yl)-11-(5-bromo-2,4-difluorophenyl)-3-(pyridin-3-yl)-10-(trifluoromethyl)-3,4-dihydro-2H,6H-[1,4]thiazepino[2,3,4-ij]quinazolin-6-one]
8 | 0.5 to 2 | C=CC(=O)N1[C@H](C)CN(c2nc(=O)n3c4c(c(-c5cc(Cl)c(F)cc5F)c(C(F)(F)F)cc24)SC[C@@H](c2ccncc2)C3)C[C@@H]1C (atropisomer, axis not shown) [Example 100B, (3S)-8-((3S,5R)-4-acryloyl-3,5-dimethylpiperazin-1-yl)-11-(5-chloro-2,4-difluorophenyl)-3-(pyridin-4-yl)-10-(trifluoromethyl)-3,4-dihydro-2H,6H-[1,4]thiazepino[2,3,4-ij]quinazolin-6-one]
9 | 2 to 20 | C=CC(=O)N1[C@H](C)CN(c2nc(=O)n3c4c(c(-c5cc(Cl)c(F)cc5F)c(C(F)(F)F)cc24)SC[C@@H](c2cccnc2)C3)C[C@@H]1C [Example 104B, (3S,11S)-8-((3S,5R)-4-acryloyl-3,5-dimethylpiperazin-1-yl)-11-(5-chloro-2,4-difluorophenyl)-3-(pyridin-3-yl)-10-(trifluoromethyl)-3,4-dihydro-2H,6H-[1,4]thiazepino[2,3,4-ij]quinazolin-6-one]

Further lines, the molecule ahead of its results:

Row | Molecule | IC50 [nM]
10 | C=CC(=O)N1[C@H](C)CN(c2nc(=O)n3c4c(c(-c5cc(Cl)c(F)cc5F)c(C(F)(F)F)cc24)SC[C@H](c2ccncc2F)C3)C[C@@H]1C [Example 111] | 20 to 250
11 | C=CC(=O)N1[C@H](C)CN(c2nc(=O)n3c4c(c(-c5ccc(F)cc5)c(C(F)(F)F)cc24)SC[C@@H](c2ccccn2)C3)C[C@@H]1C [Example 106, (R)-8-((3S,5R)-4-acryloyl-3,5-dimethylpiperazin-1-yl)-11-(4-fluorophenyl)-3-(pyridin-2-yl)-10-(trifluoromethyl)-3,4-dihydro-2H,6H-[1,4]thiazepino[2,3,4-ij]quinazolin-6-one] | 0.5 to 2
12 | C=CC(=O)N1[C@H](C)CN(c2nc(=O)n3c4c(c(-c5ccc(F)cc5)c(C(F)(F)F)cc24)SCC(c2ccc(F)cc2)C3)C[C@@H]1C (stereo partly drawn) [Example 115, 8-((3S,5R)-4-acryloyl-3,5-dimethylpiperazin-1-yl)-3,11-bis(4-fluorophenyl)-10-(trifluoromethyl)-3,4-dihydro-2H,6H-[1,4]thiazepino[2,3,4-ij]quinazolin-6-one] | 20 to 250
13 | C=CC(=O)N1[C@H](C)CN(c2nc(=O)n3c4c(c(-c5cc(Br)c(F)cc5F)c(C(F)(F)F)cc24)SC[C@@H](c2ccncc2)C3)C[C@@H]1C [Example 102, (3S)-8-((3S,5R)-4-acryloyl-3,5-dimethylpiperazin-1-yl)-11-(5-bromo-2,4-difluorophenyl)-3-(pyridin-4-yl)-10-(trifluoromethyl)-3,4-dihydro-2H,6H-[1,4]thiazepino[2,3,4-ij]quinazolin-6-one] | 0.5 to 2
14 | C=CC(=O)N1[C@H](C)CN(c2nc(=O)n3c4c(c(-c5cc(Br)c(F)cc5F)c(C(F)(F)F)cc24)SC[C@H](c2ccccn2)C3)C[C@@H]1C [Example 103] | > 250
15 | C=CC(=O)N1[C@H](C)CN(c2nc(=O)n3c4c(c(-c5ccc(F)cc5F)c(C(F)(F)F)cc24)SC[C@H](c2ccc(F)cc2)C3)C[C@@H]1C (atropisomer, axis not shown) [Example 118] | > 250
16 | C=CC(=O)N1[C@H](C)CN(c2nc(=O)n3c4c(c(-c5ccc(F)cc5)c(C(F)(F)F)cc24)SC[C@@H](c2ccncc2)C3)C[C@@H]1C [Example 113, (S)-8-((3S,5R)-4-acryloyl-3,5-dimethylpiperazin-1-yl)-11-(4-fluorophenyl)-3-(pyridin-4-yl)-10-(trifluoromethyl)-3,4-dihydro-2H,6H-[1,4]thiazepino[2,3,4-ij]quinazolin-6-one] | 0.5 to 2
17 | C=CC(=O)N1[C@H](C)CN(c2nc(=O)n3c4c(c(-c5ccc(F)cc5)c(C(F)(F)F)cc24)SCC(c2ccc(F)cc2)C3)C[C@@H]1C (stereo partly shown) [Example 116] | 2 to 20
18 | C=CC(=O)N1[C@H](C)CN(c2nc(=O)n3c4c(c(-c5ccc(F)cc5)c(C(F)(F)F)cc24)SC[C@@H](c2ccncc2F)C3)C[C@@H]1C [Example 114, (S)-8-((3S,5R)-4-acryloyl-3,5-dimethylpiperazin-1-yl)-11-(4-fluorophenyl)-3-(3-fluoropyridin-4-yl)-10-(trifluoromethyl)-3,4-dihydro-2H,6H-[1,4]thiazepino[2,3,4-ij]quinazolin-6-one] | 0.5 to 2
19 | C=CC(=O)N1[C@H](C)CN(c2nc(=O)n3c4c(c(-c5ccc(F)cc5)c(C(F)(F)F)cc24)SC[C@@H](c2cncc(F)c2)C3)C[C@@H]1C [Example 126, (S)-8-((3S,5R)-4-acryloyl-3,5-dimethylpiperazin-1-yl)-11-(4-fluorophenyl)-3-(5-fluoropyridin-3-yl)-10-(trifluoromethyl)-3,4-dihydro-2H,6H-[1,4]thiazepino[2,3,4-ij]quinazolin-6-one] | 0.5 to 2
20 | C=CC(=O)N1[C@H](C)CN(c2nc(=O)n3c4c(c(-c5ccc(F)cc5)c(C(F)(F)F)cc24)SC[C@H](c2cccs2)C3)C[C@@H]1C [Example 124, (R)-8-((3S,5R)-4-acryloyl-3,5-dimethylpiperazin-1-yl)-11-(4-fluorophenyl)-3-(thiophen-2-yl)-10-(trifluoromethyl)-3,4-dihydro-2H,6H-[1,4]thiazepino[2,3,4-ij]quinazolin-6-one] | 20 to 250
21 | C=CC(=O)N1[C@H](C)CN(c2nc(=O)n3c4c(c(-c5cc(Cl)c(F)cc5F)c(C(F)(F)F)cc24)SC[C@@H](c2cncc(F)c2)C3)C[C@@H]1C [Example 109, (3S)-8-((3S,5R)-4-acryloyl-3,5-dimethylpiperazin-1-yl)-11-(5-chloro-2,4-difluorophenyl)-3-(5-fluoropyridin-3-yl)-10-(trifluoromethyl)-3,4-dihydro-2H,6H-[1,4]thiazepino[2,3,4-ij]quinazolin-6-one] | 2 to 20
22 | C=CC(=O)N1[C@H](C)CN(c2nc(=O)n3c4c(c(-c5ccc(F)cc5)c(C(F)(F)F)cc24)SC[C@@H](c2cccs2)C3)C[C@@H]1C [Example 125, (S)-8-((3S,5R)-4-acryloyl-3,5-dimethylpiperazin-1-yl)-11-(4-fluorophenyl)-3-(thiophen-2-yl)-10-(trifluoromethyl)-3,4-dihydro-2H,6H-[1,4]thiazepino[2,3,4-ij]quinazolin-6-one] | 2 to 20
